Assay results from patent publication US10246420B2, “Pyrazole derivatives” (BAYER CROPSCIENCE AKTIENGESELLSCHAFT, priority 2014, dated 2019).

Test: Log P by HPLC on reversed phase columns (EEC directive 79/831 Annex V.A8)
Assay type: physicochemical
Conditions: not given
Protocol: Measurement of Log P values was performed according to EEC directive 79/831 Annex V.A8 by HPLC (High Performance Liquid Chromatography) on reversed phase columns with the following methods:
[^a] Log P value is determined by measurement of LC-UV, in an acidic range, with 0.1% formic acid in water and acetonitrile as eluent (linear gradient from 10% acetonitrile to 95% acetonitrile).
[^b] Log P value is determined by measurement of LC-UV, in a neutral range, with 0.001 molar ammonium acetate solution in water and acetonitrile as eluent (linear gradient from 10% acetonitrile to 95% acetonitrile).
[^c] Log P value is determined by measurement of LC-UV, in an acidic range, with 0.1% phosphoric acid and acetonitrile as eluent (linear gradient from 10% acetonitrile to 95% acetonitrile).
Calibration was done with straight-chain alkan-2-ones (with 3 to 16 carbon atoms) with known Log P values (measurement of Log P values using retention times with linear interpolation between successive alkanones). Lambda-max-values were determined using UV-spectra from 200 nm to 400 nm and the peak values of the chromatographic signals.

Row | Compound | LogP [a] | LogP [c] | LogP [b]
1 | C=CCOc1cc(F)c(Nc2c(-c3ccc(F)cc3Cl)c(C)nn2C)c(F)c1 [Example I-02] | 3.54^[a]; | 3.40^[c] | 
2 | C#CCOc1cc(F)c(Nc2c(-c3ccc(F)cc3Cl)c(C)nn2C)c(F)c1 [Example I-03] | 3.09^[a]; | 2.90^[c] | 
3 | C=CCOc1cc(F)c(N(C)c2c(-c3ccc(F)cc3Cl)c(C)nn2C)c(F)c1 [Example I-04] | 4.40^[a] |  | 
4 | C#CCOc1cc(F)cc(F)c1Nc1c(-c2ccc(Cl)cc2Cl)c(C)nn1C [Example I-05] | 3.69^[a] |  | 
5 | C#CCOc1cc(F)c(Nc2c(-c3ccccc3F)c(C)nn2C)c(F)c1 [Example I-06] | 2.78^[a] |  | 
6 | C#CCOc1cc(F)cc(F)c1Nc1c(-c2ccccc2F)c(C)nn1C [Example I-07] | 2.96^[a] |  | 
7 | C=CCOc1cc(F)c(Nc2c(-c3ccc(Cl)cc3Cl)c(C)nn2C)c(F)c1 [Example I-08] | 3.97^[a] |  | 
8 | C#CCOc1cc(F)c(Nc2c(-c3ccc(Cl)cc3Cl)c(C)nn2C)c(F)c1 [Example I-09] | 3.44^[a] |  | 
9 | C#CCOc1cc(F)c(Nc2c(-c3cc(OC)cc(OC)c3)c(C)nn2C)c(F)c1 [Example I-10] | 2.73^[a] |  | 
10 | C=CCOc1cc(F)c(Nc2c(-c3cc(OC)cc(OC)c3)c(C)nn2C)c(F)c1 [Example I-11] | 3.11^[a] |  | 
11 | C#CCOc1cc(F)cc(F)c1Nc1c(-c2cc(OC)cc(OC)c2)c(C)nn1C [Example I-12] | 2.85^[a] |  | 
12 | C=CCOc1cc(F)c(Nc2c(-c3ccccc3F)c(C)nn2C)c(F)c1 [Example I-13] | 3.22^[a] |  | 
13 | C#CCOc1cc(F)c(Nc2c(-c3ccc(F)cc3F)c(C)nn2C)c(F)c1 [Example I-14] | 2.90^[a] |  | 
14 | C=CCOc1cc(F)c(Nc2c(-c3ccc(F)cc3F)c(C)nn2C)c(F)c1 [Example I-15] | 3.33^[a] |  | 
15 | C#CCOc1cc(F)cc(F)c1Nc1c(-c2ccc(F)cc2F)c(C)nn1C [Example I-16] | 3.07^[a] |  | 
16 | C#CCOc1cc(F)c(Nc2c(-c3ccc(OC)cc3F)c(C)nn2C)c(F)c1 [Example I-17] | 2.74^[a] |  | 
17 | C=CCOc1cc(F)c(Nc2c(-c3ccc(OC)cc3F)c(C)nn2C)c(F)c1 [Example I-18] | 3.11^[a] |  | 
18 | C#CCOc1cc(F)cc(F)c1Nc1c(-c2ccc(OC)cc2F)c(C)nn1C [Example I-19] | 2.86^[a] |  | 
19 | C#CCOc1cc(F)c(Nc2c(-c3ccc(Cl)nc3)c(C)nn2C)c(F)c1 [Example I-20] | 2.56^[a]; |  | 2.54^[b]
20 | C=CCOc1cc(F)c(Nc2c(-c3ccc(Cl)nc3)c(C)nn2C)c(F)c1 [Example I-21] | 2.95^[a]; |  | 2.92^[b]
21 | C=CCOc1ccc(-c2c(C)nn(C)c2Nc2c(F)cc(OCC=C)cc2F)c(F)c1 [Example I-23] | 3.62^[a] |  | 
22 | C#CCOc1cc(F)c(Nc2c(-c3ccc(OCC=C)cc3F)c(C)nn2C)c(F)c1 [Example I-24] | 3.17^[a] |  | 

Row | Compound | LogP [a] | LogP [c] | LogP [b]
23 | C#CCOc1cc(F)cc(F)c1Nc1c(-c2ccc(Cl)nc2)c(C)nn1C [Example I-25] | 2.69^[a]; |  | 2.63^[b]
24 | C#CCOc1ccc(-c2c(C)nn(C)c2Nc2c(F)cc(F)cc2OCC#C)c(F)c1 [Example I-26] | 2.88^[a] |  | 
25 | C#CCOc1ccc(-c2c(C)nn(C)c2Nc2c(F)cc(OCC#C)cc2F)c(F)c1 [Example I-27] | 2.77^[a] |  | 
26 | C#CCOc1ccc(-c2c(C)nn(C)c2Nc2c(F)cc(OCC=C)cc2F)c(F)c1 [Example I-28] | 3.13^[a] |  | 
27 | C#CCOc1ccc(Nc2c(-c3ccc(F)cc3Cl)c(C)nn2C)c(F)c1 [Example I-29] | 3.25^[a]; |  | 3.22^[b]
28 | C=CCOc1ccc(Nc2c(-c3ccc(F)cc3Cl)c(C)nn2C)cc1 [Example I-30] | 3.51^[a]; |  | 3.52^[b]
29 | C#CCOc1ccc(Nc2c(-c3ccc(F)cc3Cl)c(C)nn2C)cc1 [Example I-31] | 3.09^[a]; |  | 3.06^[b]
30 | C#CCOc1ccc(Nc2c(-c3ccc(F)cc3Cl)c(C)nn2C)c(Cl)c1 [Example I-32] | 3.65^[a]; |  | 3.59^[b]
31 | C#CCOc1cc(F)c(Nc2c(-c3ccc(F)cc3Cl)c(C)nn2C)cc1F [Example I-33] | 3.33^[a]; | 3.20^[c] | 3.23^[b];
32 | C=CCOc1cc(F)c(Nc2c(-c3ccc(F)cc3Cl)c(C)nn2C)cc1F [Example I-34] | 3.74^[a]; | 3.60^[c] | 3.66^[b];
33 | C=CCOc1ccc(Nc2c(-c3ccc(F)cc3Cl)c(C)nn2C)cc1F [Example I-35] | 3.61^[a]; | 3.50^[c] | 3.56^[b];
34 | C#CCOc1ccc(Nc2c(-c3ccc(F)cc3Cl)c(C)nn2C)cc1F [Example I-36] | 3.17^[a]; | 3.10^[c] | 3.14^[b];
35 | C=CCOc1ccc(F)c(Nc2c(-c3ccc(F)cc3Cl)c(C)nn2C)c1 [Example I-37] | 3.78^[a]; | 3.70^[c] | 3.73^[b];
36 | C#CCOc1ccc(F)c(Nc2c(-c3ccc(F)cc3Cl)c(C)nn2C)c1 [Example I-38] | 3.33^[a]; | 3.20^[c] | 3.27^[b];
37 | C#CCOc1cc(F)c(Nc2c(-c3ccc(Cl)cc3Cl)c(C)nn2C)cc1F [Example I-39] | 3.70^[a]; | 3.60^[c] | 3.62^[b];
38 | C#CCOc1ccc(Nc2c(-c3ccc(Cl)cc3Cl)c(C)nn2C)c(Cl)c1 [Example I-40] | 4.13^[a]; | 4.00^[c] | 4.06^[b];
39 | C=CCOc1ccc(Nc2c(-c3ccc(F)cc3Cl)c(C)nn2C)c(Cl)c1 [Example I-41] | 4.23^[a]; |  | 4.20^[b]
40 | C#CCOc1cc(F)cc(F)c1Nc1c(-c2ccc(F)cc2Br)c(C)nn1C [Example I-42] | 3.33^[a]; |  | 3.32^[b]
41 | C#CCOc1ccccc1Nc1c(-c2ccc(F)cc2Br)c(C)nn1C [Example I-43] | 3.60^[a] |  | 
42 | C=CCOc1ccc(F)cc1Nc1c(-c2ccc(F)cc2Br)c(C)nn1C [Example I-44] | 4.08^[a] |  | 
43 | C#CCOc1ccc(F)cc1Nc1c(-c2ccc(F)cc2Br)c(C)nn1C [Example I-45] | 3.64^[a] |  | 
44 | C=CCOc1cc(C)ccc1Nc1c(-c2ccc(F)cc2Br)c(C)nn1C [Example I-46] | 4.39^[a] |  | 

Row | Compound | LogP [a] | LogP [c] | LogP [b]
45 | C#CCOc1cc(C)ccc1Nc1c(-c2ccc(F)cc2Br)c(C)nn1C [Example I-47] | 3.87^[a] |  | 
46 | C=CCOc1ccccc1Nc1c(-c2ccc(F)cc2Cl)c(C)nn1C [Example I-48] | 3.99^[a] |  | 
47 | C#CCOc1ccccc1Nc1c(-c2ccc(F)cc2Cl)c(C)nn1C [Example I-49] | 3.53^[a] |  | 
48 | C=CCOc1ccc(F)cc1Nc1c(-c2ccc(F)cc2Cl)c(C)nn1C [Example I-50] | 4.01^[a] |  | 
49 | C#CCOc1ccc(F)cc1Nc1c(-c2ccc(F)cc2Cl)c(C)nn1C [Example I-51] | 3.58^[a] |  | 
50 | C=CCOc1cc(C)ccc1Nc1c(-c2ccc(F)cc2Cl)c(C)nn1C [Example I-52] | 4.32^[a] |  | 
51 | C#CCOc1cc(C)ccc1Nc1c(-c2ccc(F)cc2Cl)c(C)nn1C [Example I-53] | 3.83^[a] |  | 
52 | C=CCOc1ccccc1Nc1c(-c2ccc(Cl)cc2Cl)c(C)nn1C [Example I-54] | 4.49^[a] |  | 
53 | C#CCOc1ccccc1Nc1c(-c2ccc(Cl)cc2Cl)c(C)nn1C [Example I-55] | 3.96^[a] |  | 
54 | C=CCOc1ccc(F)cc1Nc1c(-c2ccc(Cl)cc2Cl)c(C)nn1C [Example I-56] | 4.49^[a] |  | 
55 | C=CCOc1cc(C)ccc1Nc1c(-c2ccc(Cl)cc2Cl)c(C)nn1C [Example I-57] | 4.85^[a] |  | 
56 | C#CCOc1cc(C)ccc1Nc1c(-c2ccc(Cl)cc2Cl)c(C)nn1C [Example I-58] | 4.30^[a] |  | 
57 | C#CCOc1cc(F)cc(F)c1Nc1c(-c2c(F)cc(F)cc2F)c(C)nn1C [Example I-59] | 3.10^[a] |  | 
58 | C#CCOc1cc(F)cc(F)c1Nc1c(-c2c(F)cc(Cl)cc2F)c(C)nn1C [Example I-60] | 3.49^[a] |  | 
59 | C#CCOc1cc(F)cc(F)c1Nc1c(-c2c(F)cc(OC)cc2F)c(C)nn1C [Example I-61] | 3.00^[a] |  | 
60 | C#CCOc1cc(F)c(Nc2c(-c3c(F)cc(OC)cc3F)c(C)nn2C)c(F)c1 [Example I-62] | 2.85^[a] |  | 
61 | C#CCOc1cc(F)c(-c2c(C)nn(C)c2Nc2c(F)cc(F)cc2OCC#C)c(F)c1 [Example I-63] | 2.99^[a] |  | 
62 | C#CCOc1cccc(Cl)c1Nc1c(-c2ccc(F)cc2Cl)c(C)nn1C [Example I-64] | 3.56^[a] |  | 
63 | C=CCOc1cccc(Cl)c1Nc1c(-c2ccc(F)cc2Cl)c(C)nn1C [Example I-65] | 4.06^[a] |  | 
64 | C#CCOc1cccc(Cl)c1Nc1c(-c2ccc(Cl)cc2Cl)c(C)nn1C [Example I-66] | 3.99^[a] |  | 

Same assay, conditions: LC-UV, acidic range, 0.1% formic acid in water and acetonitrile as eluent; read-out: LogP [a]

Row | Compound | chromatographic logP
65 | CC(=O)Cc1ccc(O)cc1F [1-(2-fluoro-4-hydroxyphenyl)acetone] | 1.13

Same assay, conditions: reversed phase HPLC columns, LC-UV, acidic range, 0.1% formic acid in water and acetonitrile as eluent; read-out: LogP [a]

Row | Compound | chromatographic logP
66 | C#CCOc1cc(F)cc(F)c1Nc1c(-c2ccc(OCC=C)cc2F)c(C)nn1C [Example I-22, 4-[4-(Allyloxy)-2-fluorophenyl]-N-[2,4-difluoro-6-(prop-2-yn-1-yloxy)phenyl]-1,3-dimethyl-1H-pyrazol-5-amine] | 3.3
